Results reported in PubChem BioAssay AID248 (DTP/NCI, 2004).
Where “and” joins values, the source holds several entries; their conditions need not be identical. Equal values may be shown once. Inconclusive results and toxic doses are left out. Cut-off read from the data, not from the text of the source: active = T/C of 150% or more; inactive = T/C below 125%.

Tested on: L1210 leukemia ip in BDF1 mice, survival T/C
Assay: NCI In Vivo Anticancer Drug Screen. Data for tumor model L1210 Leukemia (intraperitoneal) in B6D2F1 (BDF1) mice
Conditions: higher = longer survival
Procedure, shortened: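 Each compound was tested against a transplantable tumor grown in mice. The endpoint was survival, with treated animals benchmarked against vehicle controls as a simple ratio.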

Measured: T/C

O=c1[nH]c(=O)n(C2CC(O)C(CO)O2)cc1F (configuration not stated)
inactive: endpoint: mean survival time, dose: 2.3 mg/kg/injection, schedule: Q01DX009 (ip), vehicle: saline 95 % of control and 100 % of control | endpoint: mean survival time, dose: 2.5 mg/kg/injection, schedule: Q01DX009 (ip), vehicle: saline 105 % of control | endpoint: mean survival time, dose: 3.12 mg/kg/injection, schedule: Q#A X Z (ip), vehicle: saline 109 % of control | endpoint: mean survival time, dose: 4.5 mg/kg/injection, schedule: Q01DX009 (ip), vehicle: saline 106 % of control | endpoint: mean survival time, dose: 5.0 mg/kg/injection, schedule: Q01DX009 (ip), vehicle: saline 103 % of control | endpoint: mean survival time, dose: 5.0 mg/kg/injection, schedule: Q01DX009 (oral), vehicle: saline 105 % of control | endpoint: mean survival time, dose: 6.25 mg/kg/injection, schedule: Q01DX Z (ip), vehicle: saline 105 % of control | endpoint: mean survival time, dose: 6.25 mg/kg/injection, schedule: Q#A X Z (ip), vehicle: saline 114 % of control | endpoint: mean survival time, dose: 9.0 mg/kg/injection, schedule: Q01DX009 (ip), vehicle: saline 103 % of control and 110 % of control | endpoint: mean survival time, dose: 10.0 mg/kg/injection, schedule: Q01DX005 (ip), vehicle: water 99 % of control and 102 % of control | endpoint: mean survival time, dose: 10.0 mg/kg/injection, schedule: Q01DX009 (ip), vehicle: saline 112 % of control | endpoint: mean survival time, dose: 10.0 mg/kg/injection, schedule: Q01DX009 (oral), vehicle: saline 98 % of control | endpoint: mean survival time, dose: 11.0 mg/kg/injection, schedule: Q07DX Z (ip), vehicle: saline 106 % of control | endpoint: mean survival time, dose: 12.5 mg/kg/injection, schedule: Q01DX Z (ip), vehicle: saline 111 % of control | endpoint: mean survival time, dose: 18.0 mg/kg/injection, schedule: Q04DX002 (ip), vehicle: saline 106 % of control and 115 % of control | endpoint: mean survival time, dose: 20.0 mg/kg/injection, schedule: Q01DX009 (oral), vehicle: saline 105 % of control | endpoint: mean survival time, dose: 20.0 mg/kg/injection, schedule: Q01DX015 (ip), vehicle: water 111 % of control | endpoint: mean survival time, dose: 20.0 mg/kg/injection, schedule: Q01DX Z (ip), vehicle: saline 105 % of control | endpoint: mean survival time, dose: 22.0 mg/kg/injection, schedule: Q07DX Z (ip), vehicle: saline 102 % of control | endpoint: mean survival time, dose: 25.0 mg/kg/injection, schedule: Q01DX006 (iv), vehicle: saline 110 % of control | endpoint: mean survival time, dose: 25.0 mg/kg/injection, schedule: Q01DX Z (ip), vehicle: saline 111 % of control | endpoint: mean survival time, dose: 25.0 mg/kg/injection, schedule: Q01DX Z (sc), vehicle: saline 111 % of control | endpoint: mean survival time, dose: 25.9 mg/kg/injection, schedule: Q01DX009 (ip), vehicle: saline 115 % of control | endpoint: mean survival time, dose: 29.0 mg/kg/injection, schedule: Q02DX008 (ip), vehicle: water 98 % of control | endpoint: mean survival time, dose: 30.0 mg/kg/injection, schedule: Q01DX015 (ip), vehicle: water 108 % of control | endpoint: mean survival time, dose: 30.0 mg/kg/injection, schedule: Q01DX Z (ip), vehicle: saline 106 % of control | endpoint: mean survival time, dose: 36.0 mg/kg/injection, schedule: Q04DX002 (ip), vehicle: saline 100 % of control and 110 % of control | endpoint: mean survival time, dose: 40.0 mg/kg/injection, schedule: Q01DX Z (ip), vehicle: saline 112 % of control | endpoint: mean survival time, dose: 42.0 mg/kg/injection, schedule: Q02DX008 (ip), vehicle: water 101 % of control | endpoint: mean survival time, dose: 44.0 mg/kg/injection, schedule: Q07DX Z (ip), vehicle: saline 106 % of control | endpoint: mean survival time, dose: 50.0 mg/kg/injection, schedule: Q01DX001 (ip), vehicle: saline 107 % of control | endpoint: mean survival time, dose: 50.0 mg/kg/injection, schedule: Q01DX Z (oral), vehicle: saline 107 % of control | endpoint: mean survival time, dose: 50.0 mg/kg/injection, schedule: Q02DX009 (ip), vehicle: saline 110 % of control | endpoint: mean survival time, dose: 50.0 mg/kg/injection, schedule: Q04DX003 (ip), vehicle: saline 105 % of control | endpoint: mean survival time, dose: 60.0 mg/kg/injection, schedule: Q## X004 (ip), vehicle: water 108 % of control | endpoint: mean survival time, dose: 63.0 mg/kg/injection, schedule: Q02DX008 (ip), vehicle: water 111 % of control | endpoint: mean survival time, dose: 75.0 mg/kg/injection, schedule: Q03DX006 (ip), vehicle: saline 111 % of control | endpoint: mean survival time, dose: 80.0 mg/kg/injection, schedule: Q01DX Z (ip), vehicle: saline 102 % of control | endpoint: mean survival time, dose: 80.0 mg/kg/injection, schedule: Q## X032 (ip), vehicle: water 108 % of control | endpoint: mean survival time, dose: 88.0 mg/kg/injection, schedule: Q07DX Z (ip), vehicle: saline 113 % of control | endpoint: mean survival time, dose: 90.0 mg/kg/injection, schedule: Q## X004 (ip), vehicle: water 98 % of control | endpoint: mean survival time, dose: 100.0 mg/kg/injection, schedule: Q01DX001 (ip), vehicle: saline 104 % of control and 110 % of control | endpoint: mean survival time, dose: 100.0 mg/kg/injection, schedule: Q01DX001 (ip), vehicle: water 100 % of control | endpoint: mean survival time, dose: 100.0 mg/kg/injection, schedule: Q01DX005 (ip), vehicle: saline 116 % of control | endpoint: mean survival time, dose: 100.0 mg/kg/injection, schedule: Q01DX Z (sc), vehicle: saline 111 % of control | endpoint: mean survival time, dose: 100.0 mg/kg/injection, schedule: Q04DX003 (ip), vehicle: saline 111 % of control | endpoint: mean survival time, dose: 100.0 mg/kg/injection, schedule: Q04DX005 (ip), vehicle: saline 115 % of control | endpoint: mean survival time, dose: 100.0 mg/kg/injection, schedule: Q#A X Z (ip), vehicle: saline 105 % of control | endpoint: mean survival time, dose: 125.0 mg/kg/injection, schedule: Q01DX001 (ip), vehicle: saline 112 % of control | endpoint: mean survival time, dose: 150.0 mg/kg/injection, schedule: Q01DX001 (ip), vehicle: water 102 % of control | endpoint: mean survival time, dose: 160.0 mg/kg/injection, schedule: Q01DX009 (ip), vehicle: saline 100 % of control | endpoint: mean survival time, dose: 160.0 mg/kg/injection, schedule: Q01DX009 (oral), vehicle: saline 101 % of control | endpoint: mean survival time, dose: 160.0 mg/kg/injection, schedule: Q01DX Z (ip), vehicle: saline 110 % of control | endpoint: mean survival time, dose: 175.0 mg/kg/injection, schedule: Q07DX003 (ip), vehicle: saline 114 % of control | endpoint: mean survival time, dose: 200.0 mg/kg/injection, schedule: Q01DX001 (ip), vehicle: saline 106 % of control and 107 % of control | endpoint: mean survival time, dose: 200.0 mg/kg/injection, schedule: Q01DX017 (ip), vehicle: saline 100 % of control | endpoint: mean survival time, dose: 200.0 mg/kg/injection, schedule: Q01DX Z (im), vehicle: saline 107 % of control | endpoint: mean survival time, dose: 200.0 mg/kg/injection, schedule: Q01DX Z (ip), vehicle: carboxymethylcellulose (CMC) 94 % of control | endpoint: mean survival time, dose: 200.0 mg/kg/injection, schedule: Q01DX Z (ip), vehicle: saline 102 % of control | endpoint: mean survival time, dose: 200.0 mg/kg/injection, schedule: Q01DX Z (sc), vehicle: saline 96 % of control | endpoint: mean survival time, dose: 200.0 mg/kg/injection, schedule: Q04DX002 (ip), vehicle: water 112 % of control | endpoint: mean survival time, dose: 225.0 mg/kg/injection, schedule: Q01DX001 (ip), vehicle: water 110 % of control | endpoint: mean survival time, dose: 250.0 mg/kg/injection, schedule: Q01DX001 (ip), vehicle: saline 109 % of control | endpoint: mean survival time, dose: 250.0 mg/kg/injection, schedule: Q01DX Z (ip), vehicle: saline 95 % of control | endpoint: mean survival time, dose: 270.0 mg/kg/injection, schedule: Q01DX009 (ip), vehicle: saline 115 % of control | endpoint: mean survival time, dose: 270.0 mg/kg/injection, schedule: Q## X009 (ip), vehicle: saline 115 % of control | endpoint: mean survival time, dose: 300.0 mg/kg/injection, schedule: Q02DX010 (ip), vehicle: other 108 % of control | endpoint: mean survival time, dose: 320.0 mg/kg/injection, schedule: Q01DX009 (ip), vehicle: saline 101 % of control and 108 % of control | endpoint: mean survival time, dose: 320.0 mg/kg/injection, schedule: Q01DX009 (oral), vehicle: saline 93 % of control | endpoint: mean survival time, dose: 335.0 mg/kg/injection, schedule: Q01DX001 (ip), vehicle: saline 115 % of control | endpoint: mean survival time, dose: 350.0 mg/kg/injection, schedule: Q01DX Z (ip), vehicle: saline 104 % of control | endpoint: mean survival time, dose: 375.0 mg/kg/injection, schedule: Q04DX003 (ip), vehicle: saline 112 % of control | endpoint: mean survival time, dose: 400.0 mg/kg/injection, schedule: Q01DX001 (ip), vehicle: saline 116 % of control | endpoint: mean survival time, dose: 400.0 mg/kg/injection, schedule: Q01DX009 (ip), vehicle: saline 102 % of control | endpoint: mean survival time, dose: 400.0 mg/kg/injection, schedule: Q01DX Z (oral), vehicle: saline 105 % of control | endpoint: mean survival time, dose: 400.0 mg/kg/injection, schedule: Q02DX009 (ip), vehicle: saline 100 % of control | endpoint: mean survival time, dose: 450.0 mg/kg/injection, schedule: Q02DX010 (ip), vehicle: carboxymethylcellulose (CMC) 113 % of control | endpoint: mean survival time, dose: 450.0 mg/kg/injection, schedule: Q02DX010 (ip), vehicle: other 92 % of control | endpoint: mean survival time, dose: 500.0 mg/kg/injection, schedule: Q04DX003 (ip), vehicle: saline 105 % of control | endpoint: mean survival time, dose: 640.0 mg/kg/injection, schedule: Q01DX009 (ip), vehicle: saline 95 % of control | endpoint: mean survival time, dose: 640.0 mg/kg/injection, schedule: Q01DX009 (oral), vehicle: saline 96 % of control | endpoint: mean survival time, dose: 700.0 mg/kg/injection, schedule: Q07DX003 (ip), vehicle: saline 111 % of control | endpoint: mean survival time, dose: 714.0 mg/kg/injection, schedule: Q02DX008 (ip), vehicle: saline 113 % of control | endpoint: mean survival time, dose: 750.0 mg/kg/injection, schedule: Q01DX001 (ip), vehicle: saline 112 % of control | endpoint: mean survival time, dose: 800.0 mg/kg/injection, schedule: Q01DX001 (ip), vehicle: water 108 % of control | endpoint: mean survival time, dose: 800.0 mg/kg/injection, schedule: Q01DX Z (oral), vehicle: saline 108 % of control | endpoint: mean survival time, dose: 800.0 mg/kg/injection, schedule: Q04DX003 (ip), vehicle: saline 113 % of control | endpoint: mean survival time, dose: 800.0 mg/kg/injection, schedule: Q04DX005 (ip), vehicle: saline 114 % of control | endpoint: mean survival time, dose: 1071.0 mg/kg/injection, schedule: Q02DX008 (ip), vehicle: saline 104 % of control | endpoint: mean survival time, dose: 1344.0 mg/kg/injection, schedule: Q## X032 (ip), vehicle: water 107 % of control | endpoint: median survival time, dose: 160.0 mg/kg/injection, schedule: Q01DX009 (ip), vehicle: saline 100 % of control | endpoint: median survival time, dose: 320.0 mg/kg/injection, schedule: Q01DX009 (ip), vehicle: saline 106 % of control
